According to US7943606B2, “Compositions and methods to control abnormal cell growth” (CanCure Laboratories, LLC, priority 2005, dated 2011):

Assays:
[1] = test system: cancer cells; test: Induction of cancer cell death by quaternary nitrogen dyes compared with CCDTHT; type: cell-based
Description: Despite these observations, for the purpose of embodiments of the invention, the thioxanthene or thioxanthone moiety may be replaced with any other heterocyclic moiety to which it is feasible to attach at least one quaternary nitrogen group with three substituents that together are capable of inhibiting the transport of external choline into cells and thereby inhibit cell proliferation.

[2] = Body weight of animals in the MXT tumor model; type: in vivo, mouse; details: for Body weight, Day 7: start of treatment
Method: The mouse mammary MXT tumor was developed as described above. […] CCDTHT and CisPt were administered subcutaneously and intraperitoneally, respectively, once daily for 10 days, including a 2-day rest period after 5 days of treatment (i.e., the last treatment was on day 19). Each group consisted of 7 animals, and the mean values±std. dev. for tumor volumes and body weight are shown in TABLE 4 and TABLE 5, respectively.
The mouse mammary MXT tumor model was developed and treated as described above. […] CisPt and PALP were administered intraperitoneally and subcutaneously, respectively, seven times on every second day (i.e., treatments were terminated on day 21). Each group included 7 animals; the mean values±std. dev. for tumor volumes and body weight are shown in TABLE 6 and TABLE 7, respectively.
The mouse mammary MXT tumor model was developed and treated as described above. […] In each group 7 mice were included. The mean values±std. dev. for tumor volumes and body weights are shown in TABLE 9 and TABLE 10, respectively.

[3] = test system: MXT tumor; test: MXT mouse mammary tumor model: tumor volume and survival; type: in vivo; details: for Tumor volume, Day 7: start of treatment
Description: Tumors were developed in first generation hybrid BDF1 (C57 B1 female×DBA/2 male) adult female mice kept at specified pathogen free (SPF) hygienic level. Suspensions of HL-60 human leukemia cells, or approximately 0.1 cm^3 volume of tumor tissue derived from HT-168 human melanoma, PC-3 human prostate adenocarcinoma, T47D human breast carcinoma, MXT mouse mammary cancer, or mouse B16 melanoma cells were implanted subcutaneously to develop the tumors. After 12-18 days when the tumor-bearing mice were first treated, the size of the tumors was in the 0.2-0.4 cm^3 range. All compounds used were dissolved in physiological (0.9%) saline (NaCl), and the agents, alone or in combinations, were applied subcutaneously or intraperitoneally in 50 μl volume. Tumor volume was determined by calipers in three dimensions; this technique is well known to one having ordinary skill in the art. Tumor volume was calculated according to the generally accepted formula: V=a^2×b×π/6, where “a” and “b” mean the shortest and longest diameter, respectively, of the measured tumor.
The mouse mammary MXT tumor was developed as described above. On day 7 after transplantation of tumor cells, the animals were either remained untreated (group 1) or were treated with 2 mg/kg of CisPt alone (Group 2), or 4 mg/kg of CisPt alone (Group 3), or 4.6 mg/kg of CCDTHT alone (Group 4), or 2 mg/kg of CisPt+4.6 mg/kg of CCDTHT (Group 5), or 4 mg/kg of CisPt+4.6 mg/kg of CCDTHT (Group 6). CCDTHT and CisPt were administered subcutaneously and intraperitoneally, respectively, once daily for 10 days, including a 2-day rest period after 5 days of treatment (i.e., the last treatment was on day 19). Each group consisted of 7 animals, and the mean values±std. dev. for tumor volumes and body weight are shown in TABLE 4 and TABLE 5, respectively. While in this tumor model CCDTHT alone reduced the tumor volume less effectively than in the human tumor models, it clearly added to the tumor volume-reducing effect of CisPt (TABLE 4). A dramatic reduction in tumor volume was particularly evident in Group 6 (4 mg/kg CisPt+4.6 mg/kg CCDTHT).
The mouse mammary MXT tumor model was developed and treated as described above. On day 7 the animals were either remained untreated (Group 1) or were treated with 3 mg/kg of CisPt (Group 2) or 3 mg/kg of CisPt+15 mg/kg of highly purified PALP (Group 3). CisPt and PALP were administered intraperitoneally and subcutaneously, respectively, seven times on every second day (i.e., treatments were terminated on day 21). Each group included 7 animals; the mean values±std. dev. for tumor volumes and body weight are shown in TABLE 6 and TABLE 7, respectively.
The mouse mammary MXT tumor model was developed and treated as described above. On day 7 the animals either remained untreated (Group 1) or were treated with 3 mg/kg CisPt (Group 2), 3 mg/kg CisPt+4.6 mg/kg of CCDTHT (Group 3), or 3 mg/kg CisPt+4.6 mg/kg of CCDTHT+15 mg/kg highly purified PALP (Group 4). CisPt was administered intraperitoneally 9-times once every second day; CCDTHT was administered for 15 days once daily; and PALP was administered 3 times every 3rd day. In each group 7 mice were included. The mean values±std. dev. for tumor volumes and body weights are shown in TABLE 9 and TABLE 10, respectively.

[4] = Example 31, CisPt 2 mg/kg i.p. and/or CCDTHT 4.6 mg/kg s.c., once daily
[5] = Example 31, CisPt 2 mg/kg i.p. and/or CCDTHT 4.6 mg/kg s.c.
[6] = Example 31, CisPt 4 mg/kg i.p. without or with CCDTHT 4.6 mg/kg s.c., once daily
[7] = Example 31, CisPt 4 mg/kg i.p. without or with CCDTHT 4.6 mg/kg s.c.
[8] = Example 32, CisPt 3 mg/kg i.p. without or with PALP 15 mg/kg s.c., every second day
[9] = Example 32, CisPt 3 mg/kg i.p. without or with PALP 15 mg/kg s.c.
[10] = Example 34, CisPt 3 mg/kg i.p. every second day, CCDTHT 4.6 mg/kg once daily, PALP 15 mg/kg every 3rd day
[11] = Example 34, CisPt 3 mg/kg i.p., CCDTHT 4.6 mg/kg, PALP 15 mg/kg

CN(C)c1ccc(C(=C2C=CC(=[N+](C)C)C=C2)c2ccc([N+](C)(C)C)cc2)cc1.[Cl-].[Cl-] [methyl green]
inducing cancer cell death, compared with CCDTHT [1]: ineffective or less effective

N.N.[Cl][Pt][Cl] [CisPt, Cisplatin]
Body weight, Day 14 [2, 4]: 22.9 ± 0.87 g
Body weight, Day 18 [2, 4]: 22.3 ± 1.02 g
Body weight, Day 21 [2, 4]: 21.2 ± 1.31 g
Body weight, Day 7 [2, 5]: 22.4 ± 0.73 g
Body weight, Day 14 [2, 6]: 19.4 ± 1.05 g
Body weight, Day 18 [2, 6]: all dead
Body weight, Day 21 [2, 6]: all dead
Body weight, Day 7 [2, 7]: 22.5 ± 0.92 g
Body weight, Day 11 [2, 8]: 23.1 ± 0.52 g
Body weight, Day 16 [2, 8]: 20.9 ± 0.65 g
Body weight, Day 21 [2, 8]: 19.2 ± 0.66 g
Body weight, Day 7 [2, 9]: 22.7 ± 0.37 g
Body weight, Day 11 [2, 10]: 23.10 ± 1.40 g
Body weight, Day 15 [2, 10]: 22.9 ± 1.00 g
Body weight, Day 21 [2, 10]: 20.6 ± 1.80 g
Body weight, Day 7 [2, 11]: 22.2 ± 1.10 g
survival ([3]; Example 31, CisPt 2 mg/kg and/or CCDTHT 4.6 mg/kg (groups 2, 4, 5)): 32.7 ± 6.2 days
Tumor volume, Day 14 [3, 4]: 3.34 ± 1.04 cm^3
Tumor volume, Day 18 [3, 4]: 5.37 ± 0.68 cm^3
Tumor volume, Day 21 [3, 4]: 6.23 ± 0.86 cm^3
Tumor volume, Day 7 [3, 5]: 0.46 ± 0.08 cm^3
Tumor volume, Day 14 [3, 6]: 1.77 ± 0.40 cm^3
Tumor volume, Day 18 [3, 6]: all dead
Tumor volume, Day 21 [3, 6]: all dead
Tumor volume, Day 7 [3, 7]: 0.45 ± 0.10 cm^3
survival ([3]; Example 31, CisPt 4 mg/kg without or with CCDTHT 4.6 mg/kg (groups 3, 6)): 18.1 ± 0.7 days
Tumor volume, Day 11 [3, 8]: 1.45 ± 0.22 cm^3
Tumor volume, Day 16 [3, 8]: 4.53 ± 1.00 cm^3
Tumor volume, Day 21 [3, 8]: 5.86 ± 1.38 cm^3
Tumor volume, Day 7 [3, 9]: 0.38 ± 0.01 cm^3
survival ([3]; Example 32, CisPt 3 mg/kg without or with PALP 15 mg/kg): 31.1 ± 6.2 days
survival time ([3]; Example 34, CisPt 3 mg/kg alone or with CCDTHT 4.6 mg/kg + PALP 15 mg/kg): 34 days
Tumor volume, Day 11 [3, 10]: 1.92 ± 0.67 cm^3
Tumor volume, Day 15 [3, 10]: 3.80 ± 1.30 cm^3
Tumor volume, Day 21 [3, 10]: 6.64 ± 1.28 cm^3
Tumor volume, Day 7 [3, 11]: 0.36 ± 0.12 cm^3

CN(C)c1ccc2nc3c(C(=O)O)cc(=O)c(O)c-3oc2c1.Cl [gallocyanine]
inducing cancer cell death, compared with CCDTHT [1]: ineffective or less effective

CN(C)c1ccc2nc3ccc(=[N+](C)C)cc-3sc2c1 [methylene blue]
inducing cancer cell death, compared with CCDTHT [1]: ineffective or less effective

celestine blue
inducing cancer cell death, compared with CCDTHT [1]: ineffective or less effective

CN(C)c1ccc2nc3ccc(=[N+](C)C)c([N+](=O)[O-])c-3sc2c1.[Cl-] [methylene green]
inducing cancer cell death, compared with CCDTHT [1]: ineffective or less effective

C[N+](C)=c1ccc2nc3c(ccc4ccccc43)oc-2c1.[Cl-].[Cl-].[Cl-].[Zn+2] [meldola blue]
inducing cancer cell death, compared with CCDTHT [1]: ineffective or less effective

CN(C)c1ccc2cc3ccc(=[N+](C)C)cc-3oc2c1.[Cl-] [pyronin]
inducing cancer cell death, compared with CCDTHT [1]: ineffective or less effective
